# Assay results: patent US7144891B2, “Benzo[b ]pyrano[3,2- h ]acridin-7-one cinnamate compounds” (Les Laboratoires Servier, priority 2004, dated 2006)
# Tests used:
# [1] = tested on: KB-3-1 human epidermoid carcinoma cells; assay: In vitro cytotoxicity, Microculture Tetrazolium Assay, KB-3-1; type: cell-based; conditions: KB-3-1, 4 days incubation; read-out: IC50 (concentration of cytotoxic agent which inhibits proliferation of the treated cells by 50%)
# Experimental: (§1) Two cell lines were used • 1 murine leukaemia: L1210, • 1 human epidermoid carcinoma: KB-3-1
# (§2) The cells are cultured in RPMI 1640 complete culture medium containing 10% foetal calf serum, 2 mM glutamine, 50 units/ml of penicillin, 50 μg/ml of streptomycin and 10 mM Hepes, pH=7.4. The cells are distributed on microplates and are exposed to the cytotoxic compounds. The cells are then incubated for 2 days (L1210) or 4 days (KB-3-1). The number of viable cells is then quantified by a colorimetric assay, the Microculture Tetrazolium Assay (Cancer Res. 1987, 47, 939–942).
# (§3) The results are expressed in terms of the IC50 (the concentration of cytotoxic agent which inhibits proliferation of the treated cells by 50%).
# [2] = tested on: L1210 murine leukaemia cells; assay: In vitro cytotoxicity, Microculture Tetrazolium Assay, L1210; type: cell-based; conditions: L1210, 2 days incubation; read-out: IC50 (concentration of cytotoxic agent which inhibits proliferation of the treated cells by 50%)
# Experimental: as §1, §2, §3
# [3] = general statement, limits bioavailability and i.v. use; cited from earlier work
# [4] = tested on: C38 adenocarcinoma of the colon; assay: In vivo anti-tumour activity with respect to C38 adenocarcinoma of the colon; conditions: i.v. once per week for 3 weeks (days 10, 17, 24), s.c. C38 tumour in B6D2F1 mice
# Experimental: Anti-tumour Activity with Respect to C38 Adenocarcinoma of the Colon
# Tumour fragments of C38 adenocarcinoma of the colon weighing approximately 30 mg were implanted under the skin of B6D2F1 mice (Iffa Credo, France) on day 0.
# After growth of the tumour, the mice were divided into control (18 animals) and treated (6 or 7 animals) groups, which were homogeneous with respect to tumour size. The products were administered by the i.v. route once per week for 3 weeks (on days 10, 17 and 24), at their Maximum Tolerated Dose (MTD), MTD/2 and MTD/4.
# The tumours were measured twice a week and the tumour volumes were calculated according to the following formula: volume (mm^3)=length (mm)×breadth (mm^2)/2. The anti-tumour activity is expressed as % T/C: […]
# V0 and Vt being the initial volume of the tumour and its volume at measurement time t, respectively.
# The optimum dose is the dose giving the lowest T/C value without toxicity (early death or weight loss greater than 20%).
smiles,measurement,setting,value
"COc1cc2c(c3c1c(=O)c1cc4ccccc4cc1n3C)[C@@H](OC(C)=O)[C@@H](OC(=O)C=Cc1ccccc1)C(C)(C)O2 (racemic) [Example 2, (±)-cis-1-Acetoxy-2-cinnamoyloxy-6-methoxy-3,3,14-trimethyl-1,2,3,14-tetrahydro-1H-benzo[b]pyrano[3,2-h]acridin-7-one]",IC50,[1],151 nM
same,IC50,[2],590 nM
"COc1cc2c(c3c1c(=O)c1ccccc1n3C)C=CC(C)(C)O2 [acronycine, reference compound]",solubility,[3],low
same,anti-tumour activity (% T/C),[4]; optimum dose of 100 mg/kg,27%
"COc1cc2c(c3c1c(=O)c1cc4ccccc4cc1n3C)[C@@H](OC(C)=O)[C@@H](OC(=O)C=Cc1ccc(Cl)c(Cl)c1)C(C)(C)O2 (single isomer, unassigned) [Example 33, (±)-cis-1-Acetoxy-2-(3,4-dichlorocinnamoyloxy)-6-methoxy-3,3,14-trimethyl-1,2,3,14-tetrahydro-1H-benzo[b]pyrano[3,2-h]acridin-7-one (Enantiomer β)]",anti-tumour activity (% T/C),[4]; optimum dose of 4 mg/kg,50%
